Results: patent publication US20090093476A1, “PYRROLO[1,2-A]QUINOXALINE DERIVATIVES AS ADENOSINE A3 RECEPTOR MODULATORS AND USES THEREOF” (FAUST PHARMACEUTICALS, priority 2005, published 2009)
pIC50: −log10 of the molar value. Structures can show the parent of a compound that is named as a salt.

Legend:
[1] = molecular target: T1, Human A3 receptor (Homo sapiens, UniProt P0DMS8); assay: Human A3 receptor binding assay, [125I]AB-MECA, HEK-293 cells; design: expressed in transfected cells; conditions: [125I]AB-MECA 0.15 nM; for inhibition at 1 µM: read-out: hA3 inhibition at 1 μM (of specific binding); for pIC50: HEK-293 cells, read-out: hA3 IC50
T1 sequence (P0DMS8 1-318): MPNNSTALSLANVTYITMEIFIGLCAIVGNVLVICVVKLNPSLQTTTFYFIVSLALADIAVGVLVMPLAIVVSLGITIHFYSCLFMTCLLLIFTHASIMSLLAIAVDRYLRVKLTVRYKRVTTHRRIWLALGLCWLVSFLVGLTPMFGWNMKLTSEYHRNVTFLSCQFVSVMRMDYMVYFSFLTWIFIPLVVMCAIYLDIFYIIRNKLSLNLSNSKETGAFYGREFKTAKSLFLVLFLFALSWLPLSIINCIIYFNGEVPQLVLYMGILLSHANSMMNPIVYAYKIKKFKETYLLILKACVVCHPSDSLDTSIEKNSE
Protocol: Compounds of the invention were evaluated in binding assays following procedure described by Salvatore et al. (Proc. Natl. Acad. Sci. (1993), 90:10365-10369). Human A3 receptors were used in HEK-293 cells with [^125I]AB-MECA (0.15 nM) as radioligand, IB-MECA (1 μM) for non-specific binding and 90 minutes of incubation at 22° C.

[2] = molecular target: T2, Human A1 receptor (Homo sapiens, UniProt P30542); assay: Human A1 receptor binding assay, [3H]DPCPX, CHO cells; conditions: for inhibition at 10 µM / pIC50: [3H]DPCPX 1 nM; for inhibition at 10 µM: read-out: hA1 inhibition at 10 μM; for pIC50: CHO cells, read-out: hA1 IC50
T2 construct: expressed in transfected cells; host or cells: CHO cells
T2 sequence (P30542 1-326): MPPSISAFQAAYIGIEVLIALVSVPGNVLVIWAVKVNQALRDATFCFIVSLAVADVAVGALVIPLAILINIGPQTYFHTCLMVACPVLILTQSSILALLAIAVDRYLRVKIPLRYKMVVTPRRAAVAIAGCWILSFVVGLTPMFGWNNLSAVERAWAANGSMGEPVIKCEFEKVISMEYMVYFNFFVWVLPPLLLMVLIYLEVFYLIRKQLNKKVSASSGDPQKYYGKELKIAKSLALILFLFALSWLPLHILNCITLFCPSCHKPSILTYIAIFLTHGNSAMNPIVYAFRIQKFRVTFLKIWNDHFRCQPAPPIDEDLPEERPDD
Protocol: Compounds of the invention were evaluated in binding assays following procedure described by Townsend-Nicholson and Schofield (J. Biol. Chem. (1994), 269:2373-2376). Human A1 receptors were used in CHO cells with [^3H]DPCPX (1 nM) as radioligand, DPCPX (1 μM) for non-specific binding and 60 minutes of incubation at 22° C.

[3] = molecular target: T3, Human A2A receptor (Homo sapiens, UniProt P29274); assay: Human A2A receptor binding assay, [3H]CGS 21680, HEK-293 cells; conditions: for inhibition at 10 µM / pIC50: [3H]CGS 21680 6 nM; for inhibition at 10 µM: read-out: hA2A inhibition at 10 μM; for pIC50: HEK-293 cells, read-out: hA2A IC50
T3 construct: expressed in transfected cells; host or cells: HEK-293 cells
Protocol: Compounds of the invention were evaluated in binding assays following procedure described by Luthin et al. (Mol. Pharmacol. (1995), 47:307-313). Human A2A receptors were used in HEK-293 cells with [^3H]CGS 21680 (6 nM) as radioligand, NECA (10 μM) for non-specific binding and 90 minutes of incubation at 22° C.

[4] = molecular target: T4, Human A2B receptor (Homo sapiens, UniProt P29275); assay: Human A2B receptor binding assay, [3H]MRS1754, HEK-293 cells; conditions: for pIC50: [3H]MRS1754 0.5 nM, HEK-293 cells, read-out: hA2B IC50
T4 construct: expressed in transfected cells; host or cells: HEK-293 cells
T4 sequence (P29275 1-332): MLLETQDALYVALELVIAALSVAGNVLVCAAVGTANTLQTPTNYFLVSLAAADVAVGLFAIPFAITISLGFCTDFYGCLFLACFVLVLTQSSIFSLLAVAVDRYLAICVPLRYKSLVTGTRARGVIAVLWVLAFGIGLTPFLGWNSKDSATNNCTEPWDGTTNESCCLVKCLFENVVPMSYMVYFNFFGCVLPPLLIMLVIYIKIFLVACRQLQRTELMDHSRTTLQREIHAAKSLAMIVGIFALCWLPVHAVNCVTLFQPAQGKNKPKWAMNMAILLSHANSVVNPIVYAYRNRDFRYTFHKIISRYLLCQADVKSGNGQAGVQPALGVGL
Protocol: Compounds of the invention were evaluated in binding assays following procedure described by Stehle et al. (Mol. Endocrinol. (1992), 6:384-393). Human A2B receptors were used in HEK-293 cells with [^3H]MRS1754 (0.5 nM) as radioligand, NECA (1 μM) for non-specific binding and 120 minutes of incubation at 22° C.

[5] = molecular target: T1, Human A3 receptor; assay: Functional assay on human A3 receptor: forskolin-stimulated cAMP in CHO cells; format: cell-based; design: expressed in transfected cells; host or cells: CHO cells; conditions: for cAMP levels: forskolin 10 μM, example 1 10 μM, Cl-IB-MECA 0.1 μM, Basal 0, Forskolin 100
Protocol: CHO cells expressing the human A3 receptor were grown overnight as a monolayer in 24 well tissue culture plates (400 μl/well; 2×10^5 cells/well). cAMP generation was performed in Dulbecco's modified Eagle's medium (DMEM)/N-2-hydroxyethylpiperazin-N-2-ethansulfonic acid (HEPES) buffer (0.60 g HEPES/50 ml DMEM pH 7.4). Each well was washed twice with HEPES/DMEM buffer (250 μl), and the following added: rolipram (50 μM) and cilostamide (50 μM). This was incubated for 30 min at 37° C. followed by the introduction of the compound of example 1 (10 μM) and Cl-IB-MECA (0.1 μM) or DMEM/HEPES. After a further 10 min of incubation, forskolin was added (10 μM). After a subsequent 15 min, incubation was stopped by aspirating the assay medium and by adding 200 μl of ice-cold 0.1M HCl. The amount of cAMP was determined by competition with [3H]cAMP for protein kinase A (PKA). Briefly, the sample, approximately 1.8 nM [3H]cAMP, and 100 μl of PKA solution were incubated on ice for at least 2.5 h. The incubations were stopped by rapid dilution with 2 ml of icecold Tris HCl buffer (pH 7.4), and bound radioactive material was then recovered by filtration through Whatman GF/C filters. Filters were additionally rinsed with 2×2 ml of Tris HCl buffer, and then the radioactivity was counted in Packard Emulsifier Safe scintillation fluid (3.5 mL). All data reflect three independent experiments.

T3 sequence (P29274 whole entry): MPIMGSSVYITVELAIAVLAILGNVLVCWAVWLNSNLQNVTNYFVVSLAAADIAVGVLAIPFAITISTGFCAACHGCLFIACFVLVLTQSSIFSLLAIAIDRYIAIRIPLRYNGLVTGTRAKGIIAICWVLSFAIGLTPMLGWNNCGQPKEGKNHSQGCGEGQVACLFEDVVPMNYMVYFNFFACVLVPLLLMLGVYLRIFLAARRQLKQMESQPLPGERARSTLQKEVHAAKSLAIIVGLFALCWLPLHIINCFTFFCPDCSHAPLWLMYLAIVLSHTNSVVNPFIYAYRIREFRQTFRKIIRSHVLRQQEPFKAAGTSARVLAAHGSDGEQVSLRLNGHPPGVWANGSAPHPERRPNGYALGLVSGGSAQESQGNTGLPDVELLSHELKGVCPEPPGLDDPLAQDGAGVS

CN(C)c1ccc(-c2cc3c(=O)[nH]c4ccccc4n3c2)cc1 [Example 10, 2-(4-Dimethylamino-phenyl)-5H-pyrrolo[1,2-a]quinoxalin-4-one, trifluoroacetic acid salt]
inhibition at 1 µM [1]: 32%

O=c1[nH]c2ccc(NCCCN3CCOCC3)cc2n2cc(-c3ccccc3)cc12 [Example 15, 8-(3-Morpholin-4-yl-propylamino)-2-phenyl-5H-pyrrolo[1,2-a]quinoxalin-4-one, trifluoro-acetic acid salt]
inhibition at 10 µM [2]: 53% | inhibition at 10 µM [3]: 69% | pIC50 [4]: < 5.00 | pIC50 [1]: 8.51

O=c1[nH]c2ccc(N3CCOCC3)cc2n2cc(-c3ccccc3)cc12 [Example 11, 8-Morpholin-4-yl-2-phenyl-5H-pyrrolo[1,2-a]quinoxalin-4-one, trifluoroacetic acid salt]
inhibition at 10 µM [2]: 53% | pIC50 [3]: < 5.00 | pIC50 [4]: < 5.00 | inhibition at 1 µM [1]: 90%

O=C(O)C(F)(F)F.O=c1[nH]c2ccc(OCCN3CCOCC3)cc2n2cc(-c3ccccc3)cc12 [Example 17, 8-(2-Morpholin-4-yl-ethoxy)-2-phenyl-5H-pyrrolo[1,2-a]quinoxalin-4-one, trifluoroacetic acid salt]
inhibition at 10 µM [2]: 54% | inhibition at 10 µM [3]: 57% | pIC50 [4]: < 5.00 | melting point: 190 to 200 °C | pIC50 [1]: 8.46

c1ccc(Nc2nc3ccccc3n3cc(-c4ccccc4)cc23)cc1 [Example 3, Phenyl-(2-phenyl-pyrrolo[1,2-a]quinoxalin-4-yl)-amine]
melting point: 172 °C

O=c1[nH]c2ccc(Cl)cc2n2cc(-c3ccccc3)cc12 [Example 13, 8-Chloro-2-phenyl-5H-pyrrolo[1,2-a]quinoxalin-4-one]
melting point: 346 °C

CN(C)c1nc2ccccc2n2cc(-c3ccccc3)cc12 [Example 6, Dimethyl-(2-phenyl-pyrrolo[1,2-a]quinoxalin-4-yl)-amine]
melting point: 109 to 111 °C

O=c1[nH]c2ccccc2n2cc(-c3ccccc3)cc12 [Example 1, 2-Phenyl-5H-pyrrolo[1,2-a]quinoxalin-4-one]
pIC50 [2]: < 5.00 | affinity on A1 (in words) ([2]; up to 10 μM): no detectable affinity | pIC50 [3]: < 5.00 | affinity on A2A (in words) ([3]; up to 10 μM): no detectable affinity | pIC50 [4]: < 6.00 | affinity on A2B (in words) ([4]; up to 1 μM): no detectable affinity | melting point: 301 to 303 °C | pIC50 [1]: 8.03 | mode of action at A3 receptor (prevents cAMP-decrease evoked by Cl-IB-MECA) ([5]; example 1 10 μM vs Cl-IB-MECA 0.1 μM): antagonist | cAMP levels ([5]; n = 1): 150.133 | cAMP levels ([5]; n = 2): 130.150 | cAMP levels ([5]; n = 3): 104.510

c1ccc(CCNc2nc3ccccc3n3cc(-c4ccccc4)cc23)cc1 [Example 7, Phenethyl-(2-phenyl-pyrrolo[1,2-a]quinoxalin-4-yl)-amine]
melting point: 126 °C

CN1CCN(c2ccc3[nH]c(=O)c4cc(-c5ccccc5)cn4c3c2)CC1 [Example 14, 8-(4-Methyl-piperazin-1-yl)-2-phenyl-5H-pyrrolo[1,2-a]quinoxalin-4-one]
pIC50 [2]: 5.08 | pIC50 [3]: < 5.00 | pIC50 [4]: < 5.00 | pIC50 [1]: 7.96

CSc1nc2ccccc2n2cc(-c3ccccc3)cc12 [Example 9, 4-Methylsulfanyl-2-phenyl-pyrrolo[1,2-a]quinoxaline]
melting point: 132 °C

COc1ccc(-c2cc3c(=O)[nH]c4ccccc4n3c2)cc1 [Example 2, 2-(4-Methoxy-phenyl)-5H-pyrrolo[1,2-a]quinoxalin-4-one]
melting point: 327 to 332 °C | inhibition at 1 µM [1]: 82%

CCNc1nc2ccccc2n2cc(-c3ccccc3)cc12.Cl
melting point: 299 to 301 °C

Cc1ccc2[nH]c(=O)c3cc(-c4ccccc4)cn3c2c1 [Example 12, 8-Methyl-2-phenyl-5H-pyrrolo[1,2-a]quinoxalin-4-one]
melting point: 314 to 315 °C
